Measurements published in ChEMBL document CHEMBL1140419, “Synthesis of doxorubicin-peptide conjugate with multidrug resistant tumor cell killing activity” (Bioorg Med Chem Lett, 2005).

What was measured:
NCI/ADR-RES [1] = test: Tumor killing activity in MCF7/ADR drug-resistant cell line with 10 uM verapamil (P-gp inhibitor); format: functional, cell-based; conditions: Homo sapiens
AT3B-1 [2] = test: Inhibition of tumor killing activity in AT3B1 drug-resistant cell line with 10 uM verapamil (P-gp inhibitor); format: functional, cell-based; conditions: Rattus norvegicus
AT3B-1 [3] = test: Percentage intracellular concentration in AT3B1 drug-resistant cell line; format: ADME, cell-based, Homo sapiens
MCF7 [4] = test: Cytotoxicity on drug-sensitive MCF7 cells; format: functional, cell-based; conditions: Homo sapiens
AT3B-1 [5] = test: Tumor killing activity in AT3B1 drug-resistant cell line by MTT assay; format: functional, cell-based; conditions: Rattus norvegicus
MCF7 [6] = test: Percentage intracellular concentration in MCF7 breast cancer cells; format: ADME, cell-based; conditions: human
MCF7 [7] = test: Tumor killing activity in MCF7 breast cancer cells by MTT assay; format: functional, cell-based; conditions: Homo sapiens
NCI/ADR-RES [8] = test: Percentage intracellular concentration in MCF7/ADR drug-resistant cell line; format: ADME, cell-based; conditions: human
NCI/ADR-RES [9] = test: Tumor killing activity in MCF7/ADR drug-resistant cell line by MTT assay; format: functional, cell-based; conditions: Homo sapiens

COc1cccc2c1C(=O)c1c(O)c3c(c(O)c1C2=O)C[C@@](O)(C(=O)CO)C[C@@H]3O[C@H]1C[C@H](NC(=O)C2CCC(CN3C(=O)CC(SC[C@H](N)C(=O)NCC(=O)NCC(=O)NCC(=O)N[C@@H](Cc4ccc(O)cc4)C(=O)NCC(=O)N[C@@H](CCCN=C(N)N)C(=O)N[C@@H](CCCCN)C(=O)N[C@@H](CCCCN)C(=O)N[C@@H](CCCN=C(N)N)C(=O)N[C@@H](CCCN=C(N)N)C(=O)N[C@@H](CCC(N)=O)C(=O)N[C@@H](CCCN=C(N)N)C(=O)N[C@@H](CCCN=C(N)N)C(=O)N[C@@H](CCCN=C(N)N)C(=O)O)C3=O)CC2)[C@H](O)[C@H](C)O1 (some centres not stated)
IC50 (NCI/ADR-RES [1]): 5.2 µM
IC50 (AT3B-1 [2]): 23.8 µM
permeability (AT3B-1 [3]): 49.3%
Activity (MCF7 [4]): Dose-dependent effect
IC50 (AT3B-1 [5]): 23.4 µM
permeability (MCF7 [6]): 84.6%
IC50 (MCF7 [7]): 0.28 µM
permeability (NCI/ADR-RES [8]): 58.4%
IC50 (NCI/ADR-RES [9]): 5.8 µM

COc1cccc2c1C(=O)c1c(O)c3c(c(O)c1C2=O)C[C@@](O)(C(=O)CO)C[C@@H]3O[C@H]1C[C@H](N)[C@H](O)[C@H](C)O1 [DOXORUBICIN]
IC50 (NCI/ADR-RES [1]): 6.7 µM
IC50 (AT3B-1 [2]): 42.4 µM
permeability (AT3B-1 [3]): 7.9%
Activity (MCF7 [4]): Dose-dependent effect
IC50 (AT3B-1 [5]): 168 µM
permeability (MCF7 [6]): 92.3%
permeability (NCI/ADR-RES [8]): 4.5%
IC50 (NCI/ADR-RES [9]): 45.2 µM
